The nature of series [1]: oral exposure in the rat (pharmacokinetics). The series is classed as in vivo, Hsd:Sprague Dawley rats. As to conditions: 1 mg/kg intravenous. As for the experimental part:
The oral bioavailability of three formulations of solid dispersions of compound (1-1) was determined in rats. The three dispersions chosen were the 25% dispersion of compound (1-1) in PVP, the 25% dispersion of compound (1-1) in HPMCAS-MG, and the 50% dispersion of compound (1-1) in HPMCAS-MG. The animals used in the study were Specific Pathogen Free (SPF) Hsd:Sprague Dawley rats obtained from the Central Animal Laboratory at the University of Turku, Finland. The rats were originally purchased from Harlan, The Netherlands. The rats were female and were ten weeks of age, and 12 rats were used in the study. The animals were housed in polycarbonate Makrolon II cages (three animals per cage), the animal room temperature was 21+/−3° C., the animal room relative humidity was 55+/−15%, and the animal room lighting was artificial and was cycled for 12 hour light and dark periods (with the dark period between 18:00 and 06:00 hours). Aspen chips (Tapvei Oy, Estonia) were used for bedding, and bedding was changed at least once per week. Food and water was provided prior to dosing the animals but was removed during the first two hours after dosing.
The oral dosing solutions containing the 25% dispersion of compound (1-1) in PVP, the 25% dispersion of compound (1-1) in HPMCAS-MG, and the 50% dispersion of compound (1-1) in HPMCAS-MG were prepared by adding a pre-calculated amount of sterile water for injection to containers holding the dispersion using appropriate quantities to obtain a concentration of 0.75 mg/mL of compound (1-1). The oral dosing solutions were subjected to vortex mixing for 20 seconds prior to each dose. The dosing solution for intravenous administration contained 0.25 mg/mL of compound (1-1) and was prepared by dissolving 5 mg of compound (1-1) in a mixture containing 4 mL of polyethylene glycol with an average molecular weight of 400 Da (PEG400), 4 mL of ethanol (96% purity), and 12 mL of sterile water for injection. The dosing solution containing the 25% dispersion of compound (1-1) in PVP was used within 30 minutes after the addition of water. The dosing solutions containing the 25% dispersion of compound (1-1) in HPMCAS-MG and the 50% dispersion of compound (1-1) in HPMCAS-MG were used within 60 minutes of after the addition of water. A dosing volume of 4 mL/kg was used to give dose levels of compound (1-1) of 1 mg/kg for intravenous administration and 3 mg/kg for oral administration.
Blood samples of approximately 50 μL were collected into Eppendorf tubes containing 5 μL of ethylenediaminetetraacetic acid (EDTA) solution at time points of 0.25, 0.5, 1, 2, 4, 8, 12, and 24 hours after dosing, with each sample collected within a window of 5 minutes from the prescribed time point. From each sample, 20 μL of plasma was obtained and stored at dry ice temperatures for analysis. Analysis of each sample for the concentration of compound (1-1) was performed using a validated liquid chromatography tandem mass spectrometry (LC-MS/MS) method with a lower limit of quantitation of 0.5 ng/mL.
Pharmacokinetic parameters were calculated with the Phoenix WinNonlin software package (version 6.2.1, Pharsight Corp., CA, USA) with standard noncompartmental methods. The elimination phase half-life (t1/2) was calculated by least-squares regression analysis of the terminal linear part of the log concentration-time curve. The area under the plasma concentration-time curve (AUC) was determined by use of the linear trapezoidal rule up to the last measurable concentration and thereafter by extrapolation of the terminal elimination phase to infinity. The mean residence time (MRT), representing the average amount of time a compound remains in a compartment or system, was calculated by extrapolating the drug concentration profile to infinity. The maximum plasma concentration (Cmax) and the time to Cmax (tmax) were derived directly from the plasma concentration data. […]

Series [2] can be described thus: pharmacokinetics and oral bioavailability in dogs. It counts as in vivo. The following applies: male, beagle, dog, plasma, 1 mg/kg IV. As for the experimental part:
Blood samples were collected from the jugular vein of each animal at 0 (pre-dose), 5, 15, and 30 minutes and 1, 2, 4, 8, 12, and 24 hours following intravenous administration and at 0 (pre-dose), 15 and 30 minutes and 1, 2, 4, 8, 12, and 24 hours following oral gavage administration. The amount of compound (1-1) present in each sample was detected using a qualified LC-MS/MS method with a lower limit of quantification of 0.5 ng/mL. The area under the plasma concentration-time curve (AUC) was determined by use of the linear trapezoidal rule up to the last measurable concentration without extrapolation of the terminal elimination phase to infinity. The elimination half-life (t1/2) was calculated by least-squares regression analysis of the terminal linear part of the log concentration-ime curve. The maximum plasma concentration (Cmax) and the time to Cmax (tmax) were derived directly from the plasma concentration data. The oral bioavailability (F) was calculated by dividing the dose normalized AUC after oral administration by the dose normalized AUC after intravenous administration and reported as percentages (%).

The mark [3] stands for this setting: female, Hsd:Sprague Dawley, plasma.

With `Cc1sc2c(c1C)C(c1ccc(Cl)cc1)=N[C@@H](CC(=O)Nc1ccc(O)cc1)c1nnc(C)n1-2` [Compound (1-1), 2-[(6S)-4-(4-chlorophenyl)-2,3,9-trimethyl-6H-thienol[3,2f]-[1,2,4]triazolo[4,3-a][1,4]diazepin-6-yl]-N-(4-hydroxyphenyl)acetamide dihydrate], in series [1], the CI/F stood at 13.4 mL/min/kg. For the same compound, in series [1] (setting [3]), the highest level (Cmax) was 730 ng/mL; the MRT (usually a mean duration of stay, worked out from the concentration-time curve) worked out at 7.4 h; the time of peak concentration (Tmax) (commonly the time at which the peak concentration occurs) came out at 0.25 h; the half-life (as a rule, the time needed for the level to fall by half in the phase considered) is 8.5 h. Besides, the AUC (as a rule, the area under the concentration-time curve, a measure of exposure) in series [1] (female, Hsd:Sprague Dawley, plasma, extrapolated to infinity) is 1240 ng·h/mL. In series [2], the half-life is 1.5 h. Besides, in series [2] (average of three dogs), the highest level (Cmax) was 769 ng/mL and the Tmax amounted to 4.98 min. Moreover, the AUC in series [2] (to last measurable concentration) was 889 ng·h/mL.

Source of the values: patent publication US20140107107A1, “PHARMACEUTICAL FORMULATION CONTAINING THIENOTRIAZOLODIAZEPINE COMPOUNDS” (Oncoethix SA, priority 2012, published 2014).
